According to patent US20220378923A1, “BET DEGRADER” (KYOWA KIRIN CO., LTD., priority 2019, published 2022):

Target: T1, interaction between BRD2 and E3 ligase DCAF16 (Homo sapiens, UniProt P25440)
T1 construct: expressed in transfected cells; host or cells: HEK293
Test: Verification of BET-DCAF16 interaction, comparative test with known compounds (Test Example 8)
Format: cell-based
Conditions: test compound 1.0 μmol/L; HEK293 cells expressing Nluc-BRD2 and DCAF16-HaloTag; MLN4924 instead of bortezomib; substrate diluted 200-fold
Protocol: Cultured HEK293 cells were washed with DPBS, no calcium, no magnesium (DPBS: Code No. 14190144, Thermo Fisher Scientific) and harvested using TrypLE™ Express Enzyme (1×), phenol red (TrypLE: Code No. 12605036, Thermo Fisher Scientific), and prepared to be 4.0×10^5 cells/mL in DMEM. A volume of 12 mL of the cell suspension was seeded in a Falcon® 100 mm×20 mm cell culture dish and cultured in a carbon dioxide gas incubator at 37° C. for 6 hours. For one dish, 12 μg of pFC27K_DCAF16, 0.12 μg of p FN31A_BRD2, 48 μL of FuGENE® HD Transfection Reagent (Code No. E2312, Promega) were added to 600 μL of Opti-MEM™ I Reduced Serum Medium, no phenol red (Opti-MEM: Code No. 11058021, Thermo Fisher Scientific) and mixed. The mixture was allowed to stand for 15 minutes and added to HEK293 cells. After 20 hours, the cells were washed with DPBS, no calcium, no magnesium, harvested from the dish using TrypLE, and then neutralized in DMEM. After centrifugation, the supernatant was discarded, and the cells were prepared to be 2.2×10^5 cells/mL using Opti-MEM containing 4% FBS. HaloTag® NanoBRET™ 618 Ligand contained in NanoBRET™ Nano-Glo® Detection System (Code No. N1662, Promega) and bortezomib as a proteasome inhibitor were added to be a 1000-fold dilution. In addition, a group was prepared to which DMSO was added instead of HaloTag® NanoBRET™ 618 Ligand. 90 μL of the cell suspension was seeded in CulturPlate-96 (Code No. 6005688, PerkinElmer), and allowed to stand in a carbon dioxide gas incubator at 37° C. for 30 minutes. A volume of 10 mmol/L of a solution of the test compound in DMSO was adjusted to be 100 μmol/L with Opti-MEM, 10 μL of the solution was added to each well, and then the mixture was allowed to stand in a carbon dioxide gas incubator at 37° C. for 2 hours. At this time, all the groups were prepared so that the final concentration of DMSO was 0.1 vol % including the group to which the test compound was not added. NanoBRET™ Nano-Glo® Substrate included in the NanoBRET™ Nano-Glo® Detection System was diluted 100-fold with Opti-MEM. After adding 25 μL of the dilution each and stirring for 30 seconds, measurement was performed with an Emission Filter of 460 nm and 620 nm using EnVision (PerkinElmer). The BRET ratio of 10 μmol/L for each test compound was calculated using the following formula. The experiment was performed by n=3 and the average value was calculated.
BRET ratio={(A/B)−(C/D)}×1000 • A: value at 620 nm filter of the well with addition of test compound and 618 Ligand • B: value at 460 nm filter of the well with addition of test compound and 618 Ligand • C: value at 620 nm filter of the well without addition of test compound or 618 Ligand • D: value at 460 nm filter of the well without addition of test compound or 618 Ligand
For comparison with the known comparative compound 1, the enhancement of the BET-DCAF16 interaction was verified by the same method as in test example 7. However, for the purpose of system optimization, bortezomib was changed to Neddylation inhibitor MLN4924 (Code No. HY-10484, MedChem Express), and the dilution ratio of NanoBRET™ Nano-Glo® Substrate was set to 200-fold. The BRET ratio of 1.0 μmol/L of each test compound was calculated, and the results are shown as in Table 23 below.

T1 sequence (P25440 whole entry): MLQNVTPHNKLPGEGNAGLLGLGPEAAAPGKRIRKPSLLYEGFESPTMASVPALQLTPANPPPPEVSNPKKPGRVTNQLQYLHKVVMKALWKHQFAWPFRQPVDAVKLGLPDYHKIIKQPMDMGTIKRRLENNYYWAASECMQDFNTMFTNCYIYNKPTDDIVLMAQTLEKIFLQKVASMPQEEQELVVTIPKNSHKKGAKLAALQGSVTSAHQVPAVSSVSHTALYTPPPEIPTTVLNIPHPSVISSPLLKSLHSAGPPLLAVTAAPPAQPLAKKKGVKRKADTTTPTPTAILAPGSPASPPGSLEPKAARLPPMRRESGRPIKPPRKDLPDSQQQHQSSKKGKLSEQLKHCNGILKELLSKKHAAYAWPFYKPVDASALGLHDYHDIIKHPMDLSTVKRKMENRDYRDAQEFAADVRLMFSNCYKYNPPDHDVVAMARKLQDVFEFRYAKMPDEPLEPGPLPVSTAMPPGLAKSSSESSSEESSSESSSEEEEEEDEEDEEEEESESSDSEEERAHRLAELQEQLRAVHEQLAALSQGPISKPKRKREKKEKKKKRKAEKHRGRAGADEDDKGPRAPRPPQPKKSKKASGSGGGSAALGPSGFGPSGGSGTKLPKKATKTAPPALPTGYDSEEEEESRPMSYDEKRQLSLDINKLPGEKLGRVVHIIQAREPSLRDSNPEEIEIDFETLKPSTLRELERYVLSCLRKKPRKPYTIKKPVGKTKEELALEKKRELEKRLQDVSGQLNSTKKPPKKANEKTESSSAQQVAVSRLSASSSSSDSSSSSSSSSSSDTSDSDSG
T1 sequence (Q9NXF7 whole entry partner): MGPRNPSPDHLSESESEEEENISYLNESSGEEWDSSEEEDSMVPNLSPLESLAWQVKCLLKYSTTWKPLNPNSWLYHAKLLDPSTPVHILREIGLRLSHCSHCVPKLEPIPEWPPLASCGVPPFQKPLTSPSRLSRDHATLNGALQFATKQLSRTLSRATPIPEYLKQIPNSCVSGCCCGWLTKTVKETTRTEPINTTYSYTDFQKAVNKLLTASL

| SMILES | BRET Ratio |
| --- | --- |
| CCC(=O)N1c2ccccc2[C@H](Nc2ccc(C(=O)NCCCNC(=O)c3ccc(C4=N[C@@H](CC(=O)OC(C)(C)C)c5nnc(C)n5-c5sc(C)c(C)c54)cc3)cc2)C[C@@H]1C [Compound 1h, tert-Butyl 2-[(S)-2,3,9-trimethyl-4-(4-{[3-(4-{[(2S,4R)-2-methyl-1-propionyl-1,2,3,4-tetrahydroquinolin-4-yl]amino}benzamide)propyl]carbamoyl}phenyl)-6H-thieno[3,2-f][1,2,4]triazolo[4,3-a][1,4]diazepin-6-yl]acetate] | 10.95 |
| CCC(=O)N1c2ccccc2[C@H](Nc2ccc(C(=O)NCc3cn(-c4ccc(N[C@@H]5C[C@H](C)N(C(=O)CC)c6ccccc65)cc4)nn3)cc2)C[C@@H]1C [Compound 3a, 4-{[(2S,4R)-2-Methyl-1-propionyl-1,2,3,4-tetrahydroquinolin-4-yl]amino}-N-{[1-(4-{[(2S,4R)-2-methyl-1-propionyl-1,2,3,4-tetrahydroquinolin-4-yl]amino}phenyl)-1H-1,2,3-triazol-4-yl]methyl}benzamide] | 14.46 |
| Cc1sc2c(c1C)C(c1ccc(C(=O)NCc3cn(-c4ccc(C5=N[C@@H](CC(=O)OC(C)(C)C)c6nnc(C)n6-c6sc(C)c(C)c65)cc4)nn3)cc1)=N[C@@H](CC(=O)OC(C)(C)C)c1nnc(C)n1-2 [Compound 3b, tert-Butyl 2-[(S)-4-(4-{4-[(4-{(S)-6-[2-(tert-butoxy)-2-oxoethyl]-2,3,9-trimethyl-6H-thieno[3,2-f][1,2,4]triazolo[4,3-a][1,4]diazepin-4-yl}benzamide)methyl]-1H-1,2,3-triazol-1-yl}phenyl)-2,3,9-trimethyl-6H-thieno[3,2-f][1,2,4]triazolo[4,3-a][1,4]diazepin-6-yl]acetate] | 9.69 |
| CCC(=O)N1c2ccccc2[C@H](Nc2ccc(C(=O)N3CCn4c(-c5ccc(N[C@@H]6C[C@H](C)N(C(=O)CC)c7ccccc76)cc5)cnc4C3)cc2)C[C@@H]1C [Compound 3e, 1-[(2S,4R)-2-Methyl-4-({4-[3-(4-{[(2S,4R)-2-methyl-1-propionyl-1,2,3,4-tetrahydroquinolin-4-yl]amino}phenyl)-5,6,7,8-tetrahydroimidazo[1,2-a]pyrazine-7-carbonyl]phenyl}amino)-3,4-dihydroquinolin-1(2H)-yl]propan-1-one] | 9.58 |
| CCC(=O)N1c2ccccc2[C@H](Nc2ccc(NC(=O)N3CCN(C(=O)C4CCC(N[C@@H]5C[C@H](C)N(C(=O)CC)c6ccccc65)CC4)CC3)cc2)C[C@@H]1C (stereo partly drawn) [Compound 7p, 4-((1R,4r)-4-(((2S,4R)-2-Methyl-1-propionyl-1,2,3,4-tetrahydroquinolin-4-yl)amino)cyclohexane-1-carbonyl)-N-(4-(((2S,4R)-2-methyl-1-propionyl-1,2,3,4-tetrahydroquinolin-4-yl)amino)phenyl)piperazine-1-carboxamide] | 11.57 |
| CCC(=O)N1c2ccccc2[C@H](Nc2ccc(-n3cc(CCNC(=O)[C@H]4CC[C@H](N[C@@H]5C[C@H](C)N(C(=O)CC)c6ccccc65)CC4)nn3)cc2)C[C@@H]1C [Compound 8a, (1R,4r)-4-(((2S,4R)-2-Methyl-1-propionyl-1,2,3,4-tetrahydroquinolin-4-yl)amino)-N-(2-(1-(4-(((2S,4R)-2-methyl-1-propionyl-1,2,3,4-tetrahydroquinolin-4-yl)amino)phenyl)-1H-1,2,3-triazol-4-yl)ethyl)cyclohexane-1-carboxamide] | 12.45 |
| CCC(=O)N1c2ccccc2[C@H](Nc2ccc(NC(=O)CNC(=O)N[C@H]3CC[C@H](N[C@@H]4C[C@H](C)N(C(=O)CC)c5ccccc54)CC3)cc2)C[C@@H]1C [Compound 8j, 2-(3-((1R,4R)-4-(((2S,4R)-2-Methyl-1-propionyl-1,2,3,4-tetrahydroquinolin-4-yl)amino)cyclohexyl)ureido)-N-(4-(((2S,4R)-2-methyl-1-propionyl-1,2,3,4-tetrahydroquinolin-4-yl)amino)phenyl)acetamide] | 11.91 |
| CCNC(=O)C[C@@H]1N=C(c2ccc(SCCCCSc3ccc(C4=N[C@@H](CC(=O)NCC)c5nnc(C)n5-c5ccc(OC)cc54)cc3)cc2)c2cc(OC)ccc2-n2c(C)nnc21 [compound 1, 2,2′-((4S,4'S)-6,6′-((butane-1,4-diylbis(sulfanediyl))bis(4,1-phenylene))bis(8-methoxy-1-methyl-4H-benzo[f][1,2,4]triazolo[4,3-a][1,4]diazepine-6,4-diyl))bis(N-ethylacetamide), reference compound] | 1.93 |

Further lines, results first:

| BRET Ratio | SMILES |
| --- | --- |
| 14.93 | CCC(=O)N1c2ccccc2[C@H](Nc2ccc(C(=O)NCC(=O)CNC(=O)c3ccc(N[C@@H]4C[C@H](C)N(C(=O)CC)c5ccccc54)cc3)cc2)C[C@@H]1C [Compound 1l, N,N′-(2-Oxopropane-1,3-diyl)bis(4-{[(2S,4R)-2-methyl-1-propionyl-1,2,3,4-tetrahydroquinolin-4-yl]amino}benzamide)] |
| 12.62 | CCC(=O)N1c2ccccc2[C@H](Nc2ccc(NC(=O)CCCC(=O)Nc3ccc(N[C@@H]4C[C@H](C)N(C(=O)CC)c5ccccc54)cc3)cc2)C[C@@H]1C [Compound 6k, N^1,N^5-Bis(4-(((2S,4R)-2-methyl-1-propionyl-1,2,3,4-tetrahydroquinolin-4-yl)amino)phenyl)glutaramide] |
| 13.00 | CCC(=O)N1c2ccccc2[C@H](Nc2ccc(NC(=O)CCCC(=O)NC3CCC(N[C@@H]4C[C@H](C)N(C(=O)CC)c5ccccc54)CC3)cc2)C[C@@H]1C (stereo partly drawn) [Compound 7o, N^1-((1R,4r)-4-(((2S,4R)-2-Methyl-1-propionyl-1,2,3,4-tetrahydroquinolin-4-yl)amino)cyclohexyl)-N^5-(4-(((2S,4R)-2-methyl-1-propionyl-1,2,3,4-tetrahydroquinolin-4-yl)amino)phenyl)glutaramide] |
| 13.16 | CCC(=O)N1c2ccccc2[C@H](Nc2ccc(NC(=O)CCCC(=O)NC3CCN(Cc4cc(O)cc(-c5c(C)noc5C)c4)CC3)cc2)C[C@@H]1C [Compound 12c, N^1-(1-(3-(3,5-Dimethylisoxazol-4-yl)-5-hydroxybenzyl)piperidin-4-yl)-N^5-(4-(((2S,4R)-2-methyl-1-propionyl-1,2,3,4-tetrahydroquinolin-4-yl)amino)phenyl)glutaramide] |
| 9.59 | CCC(=O)N1c2ccccc2[C@H](Nc2ccc(NC(=O)CCCC(=O)Nc3ccc(Cn4c(C(=O)OCCN(C)C)cc5c4CCCC5=O)cc3)cc2)C[C@@H]1C [Compound 15a, 2-(Dimethylamino)ethyl 1-(4-(5-((4-(((2S,4R)-2-methyl-1-propionyl-1,2,3,4-tetrahydroquinolin-4-yl)amino)phenyl)amino)-5-oxopentanamide)benzyl)-4-oxo-4,5,6,7-tetrahydro-1H-indole-2-carboxylate] |
| 12.43 | CCC(=O)N1c2ccccc2[C@H](Nc2ccc(-n3cc(CNC(=O)c4ccc(Cn5c(CC)cc6c5CCCC6=O)cc4)nn3)cc2)C[C@@H]1C [Compound 15f, 4-((2-Ethyl-4-oxo-4,5,6,7-tetrahydro-1H-indol-1-yl)methyl)-N-((1-(4-(((2S,4R)-2-methyl-1-propionyl-1,2,3,4-tetrahydroquinolin-4-yl)amino)phenyl)-1H-1,2,3-triazol-4-yl)methyl)benzamide] |
